Assay results as given in the supplement of paper PMC11451515.

Tested on: NOMO1
Test: cell viability relative to DMSO control; higher = less cytotoxic
Details: 48 h
Method in brief: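 NOMO1 or SEM cells were plated at 500 cells/well and P12-Ichikawa cells at 1000 cells/well in 1536-well plates (5 μl), after each leukemia line had been adapted for at least four passages in each medium. Pin dosing delivered library compounds in DMSO at 11 threefold concentrations, 47 μM to 0.79 nM. CellTiter-Glo One luminescence was read after 48 h at 37°C. Viability is reported as a per-plate percentage of DMSO wells, with cell-free wells as background.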

[1] = HPLM + 10% dialyzed FBS, 0.000781 µM
[2] = HPLM + 10% dialyzed FBS, 0.00234 µM
[3] = HPLM + 10% dialyzed FBS, 0.00702 µM
[4] = HPLM + 10% dialyzed FBS, 0.0211 µM
[5] = HPLM + 10% dialyzed FBS, 0.0632 µM
[6] = HPLM + 10% dialyzed FBS, 0.19 µM
[7] = HPLM + 10% dialyzed FBS, 0.569 µM
[8] = HPLM + 10% dialyzed FBS, 1.71 µM
[9] = HPLM + 10% dialyzed FBS, 5.12 µM
[10] = HPLM + 10% dialyzed FBS, 15.4 µM
[11] = HPLM + 10% dialyzed FBS, 46.1 µM
[12] = RPMI 5 mM glucose + 10% FBS, 0.000781 µM
[13] = RPMI 5 mM glucose + 10% FBS, 0.00234 µM
[14] = RPMI 5 mM glucose + 10% FBS, 0.00702 µM
[15] = RPMI 5 mM glucose + 10% FBS, 0.0211 µM
[16] = RPMI 5 mM glucose + 10% FBS, 0.0632 µM
[17] = RPMI 5 mM glucose + 10% FBS, 0.19 µM
[18] = RPMI 5 mM glucose + 10% FBS, 0.569 µM
[19] = RPMI 5 mM glucose + 10% FBS, 1.71 µM
[20] = RPMI 5 mM glucose + 10% FBS, 5.12 µM
[21] = RPMI 5 mM glucose + 10% FBS, 15.4 µM
[22] = RPMI 5 mM glucose + 10% FBS, 46.1 µM
[23] = RPMI 5 mM glucose + 10% dialyzed FBS, 0.000781 µM
[24] = RPMI 5 mM glucose + 10% dialyzed FBS, 0.00234 µM
[25] = RPMI 5 mM glucose + 10% dialyzed FBS, 0.00702 µM
[26] = RPMI 5 mM glucose + 10% dialyzed FBS, 0.0211 µM
[27] = RPMI 5 mM glucose + 10% dialyzed FBS, 0.0632 µM
[28] = RPMI 5 mM glucose + 10% dialyzed FBS, 0.19 µM
[29] = RPMI 5 mM glucose + 10% dialyzed FBS, 0.569 µM
[30] = RPMI 5 mM glucose + 10% dialyzed FBS, 1.71 µM
[31] = RPMI 5 mM glucose + 10% dialyzed FBS, 5.12 µM
[32] = RPMI 5 mM glucose + 10% dialyzed FBS, 15.4 µM
[33] = RPMI 5 mM glucose + 10% dialyzed FBS, 46.1 µM

Row | SMILES | cell viability [1] [%] | cell viability [2] [%] | cell viability [3] [%] | cell viability [4] [%] | cell viability [5] [%] | cell viability [6] [%] | cell viability [7] [%] | cell viability [8] [%] | cell viability [9] [%] | cell viability [10] [%] | cell viability [11] [%] | cell viability [12] [%] | cell viability [13] [%] | cell viability [14] [%] | cell viability [15] [%] | cell viability [16] [%] | cell viability [17] [%] | cell viability [18] [%] | cell viability [19] [%] | cell viability [20] [%] | cell viability [21] [%] | cell viability [22] [%] | cell viability [23] [%] | cell viability [24] [%] | cell viability [25] [%] | cell viability [26] [%] | cell viability [27] [%] | cell viability [28] [%] | cell viability [29] [%] | cell viability [30] [%] | cell viability [31] [%] | cell viability [32] [%] | cell viability [33] [%]
1 | CC(=O)N(C)c1cccc(-c2ccnc3c(C(=O)c4cccs4)cnn23)c1 | 110 | 107 | 110 | 77.7 | 99.4 | 94.8 | 104 | 119 | 97.5 | 113 | 95.2 | 95.6 | 104 | 100 | 92.6 | 99.5 | 104 | 98 | 100 | 102 | 94.5 | 90.1 | 92.8 | 103 | 87.2 | 73.7 | 97.9 | 89 | 99.4 | 87.2 | 95.6 | 99.6 | 82.2
2 | COC1=CC=CC=C1C2=CC=CC(=C2)C/3=C(O)/C4=CC(=C(Cl)C=C4NC3=O)C#N | 110 | 120 | 109 | 109 | 129 | 114 | 107 | 103 | 31.2 | 5.52 | 1.77 | 89.6 | 111 | 113 | 98.5 | 107 | 108 | 113 | 110 | 82.4 | 13.4 | 2.44 | 92.2 | 103 | 95.4 | 93.6 | 96.4 | 88.3 | 104 | 108 | 84.5 | 21 | 4.29
3 | Cn1c(=O)c2c(ncn2C)n(C)c1=O.O=C(O)CC(O)(CC(=O)O)C(=O)O | 118 | 106 | 123 | 133 | 105 | 114 | 100 | 104 | 98.9 | 86 | 109 | 95.4 | 98.9 | 107 | 101 | 115 | 104 | 106 | 106 | 101 | 91.2 | 93.8 | 93.8 | 113 | 109 | 106 | 114 | 107 | 119 | 98.6 | 97.3 | 89.2 | 85.4
4 | COc1cccc2cc(-c3nc(C4CCC(C(=O)O)CC4)n4ncnc(N)c34)[nH]c12 (centres undefined) | 116 | 124 | 102 | 119 | 99.8 | 94.7 | 68.2 | 38.7 | 34.8 | 37.3 | 47.1 | 109 | 113 | 107 | 106 | 105 | 105 | 98.4 | 55.3 | 30 | 26.3 | 19.9 | 105 | 104 | 108 | 115 | 102 | 105 | 88.1 | 53.6 | 41.7 | 26.9 | 27.8
5 | C=C(C)[C@@H]1CC[C@]2(C(=O)O)CC[C@]3(C)[C@H](CC[C@@H]4[C@@]5(C)CC[C@H](O)C(C)(C)[C@@H]5CC[C@]43C)[C@@H]12 | 115 | 124 | 107 | 123 | 119 | 110 | 118 | 105 | 102 | 94.6 | 95.7 | 116 | 118 | 121 | 111 | 115 | 111 | 119 | 113 | 111 | 114 | 97.1 |  |  |  |  |  |  |  |  |  |  | 
6 | Cc1c(CCOc2ccc(C(=O)O)cc2)c2cc(Cl)ccc2n1C(c1ccccc1)c1ccccc1 | 119 | 121 | 111 | 116 | 109 | 107 | 115 | 123 | 105 | 95 | 73.8 | 108 | 103 | 108 | 108 | 112 | 97.9 | 94.8 | 74.8 | 98.7 | 99.9 | 93.6 | 111 | 124 | 125 | 120 | 116 | 106 | 98.6 | 115 | 113 | 101 | 97.3
7 | CC1(C)Cc2c(-c3ccccc3)c(-c3ccc(Cl)cc3)c(CC(=O)O)n2C1 | 115 | 106 | 130 | 131 | 111 | 120 | 128 | 106 | 108 | 99.5 | 90.6 | 102 | 123 | 118 | 124 | 119 | 115 | 112 | 101 | 99 | 111 | 96.8 | 110 | 114 | 105 | 115 | 117 | 113 | 114 | 106 | 105 | 91.8 | 89.2
8 | CC1CCC(C(=O)N(c2cc(C#CC(C)(C)C)sc2C(=O)O)C2CCC(O)CC2)CC1 (centres undefined) | 108 | 98.7 | 111 | 113 | 96 | 92.9 | 98.7 | 85 | 78.9 | 50.1 | 53.5 | 87.2 | 98.8 | 91.5 | 90.9 | 85 | 87.9 | 88.6 | 87.7 | 78.1 | 75.1 | 59.8 | 97.5 | 97.1 | 89.7 | 98.3 | 96.5 | 86.3 | 93.2 | 81.7 | 79.9 | 65.2 | 46.1
9 | O=C(OC)[C@]12CC[C@@]3(C)[C@]4(C)CC[C@H]5[C@@](C)(C)C(=O)C(=C[C@]5(C)C4=CC(=O)[C@@H]3[C@@H]2C[C@](C)(C)CC1)C#N | 95 | 100 | 90.6 | 112 | 110 | 94.1 | 113 | 96.1 | 110 | 2.47 | 2.86 | 93.9 | 99.8 | 89.5 | 82.1 | 99.2 | 94.2 | 88.9 | 84.7 | 88.6 | 2.76 | 2.71 | 87.2 | 92 | 96.5 | 96.6 | 102 | 112 | 85 | 84.6 | 85.7 | 2.44 | 2.7
10 | C[C@](O)(COc1ccc(C#N)cc1)C(=O)Nc1ccc(C#N)c(C(F)(F)F)c1 | 83.2 | 81.5 | 81.2 | 95.6 | 90.1 | 99.1 | 90.4 | 96 | 88.6 | 97 | 71.2 | 72.8 | 93.8 | 94.4 | 85.4 | 96.2 | 95.3 | 103 | 96.2 | 88.8 | 92.8 | 75.9 | 75.5 | 88.7 | 86.8 | 98.3 | 92.5 | 97.2 | 95.2 | 102 | 85.2 | 92.4 | 78.8
11 | CC[C@H](CC[C@@H](C)[C@H]1CC[C@H]2[C@@H]3C\C=C/4C[C@@H](O)CC[C@]4(C)[C@H]3CC[C@]12C)C(C)C | 97.3 | 126 | 123 | 117 | 131 | 124 | 114 | 107 | 95.6 | 55.5 | 35.6 | 103 | 114 | 113 | 106 | 108 | 115 | 102 | 103 | 96.1 | 92.4 | 22.3 | 105 | 120 | 114 | 107 | 116 | 107 | 97.3 | 102 | 93.5 | 72.5 | 26.3
12 | Cc1c(CN2CCN(C(=O)[C@H](C)O)CC2)sc2c(N3CCOCC3)nc(-c3cnc(N)nc3)nc12 | 77.8 | 100 | 89.8 | 90.4 | 86.5 | 71.5 | 53.9 | 46.9 | 33.7 | 39.4 | 40.5 | 79.2 | 93.6 | 93.9 | 88.6 | 91.5 | 86.9 | 69.1 | 58.2 | 52.5 | 47.9 | 43.9 | 79.7 | 94 | 81.2 | 74.5 | 69.5 | 73.7 | 59.1 | 45.4 | 47.8 | 44.6 | 39.3
13 | Cc1cc(OCCCc2c(C(=O)O)n(Cc3cccnc3)c3c(-c4c(COc5ccc(N6CCN([S+](C)(=O)[O-])CC6)cc5)nn(C)c4C)cccc23)cc(C)c1Cl | 92.9 | 112 | 98.3 | 107 | 100 | 104 | 100 | 92.7 | 92.1 | 87 | 71.8 | 86 | 87.7 | 94.8 | 89.8 | 95.6 | 90.8 | 87.7 | 91.5 | 82.4 | 78.5 | 74.9 | 92.4 | 90.5 | 98.1 | 98.4 | 95.8 | 86.1 | 87.7 | 98.2 | 96.7 | 91.2 | 78.6
14 | CC(C)NCC(O)COc1ccc(COCCOC(C)C)cc1 (centres undefined) | 114 | 110 | 121 | 113 | 122 | 99.8 | 118 | 109 | 109 | 95.4 | 73.1 | 108 | 116 | 108 | 107 | 114 | 116 | 107 | 110 | 97.3 | 103 | 91.4 | 111 | 111 | 119 | 105 | 129 | 111 | 111 | 99.7 | 111 | 116 | 88.7
15 | CC1(C)CCC[C@]2(C)[C@H]3CC(=O)O[C@]3(C)CC[C@@H]12 | 126 | 107 | 113 | 114 | 118 | 121 | 123 | 112 | 126 | 120 | 98.6 | 119 | 111 | 118 | 121 | 107 | 112 | 129 | 98 | 111 | 110 | 81.2 | 122 | 112 | 125 | 120 | 125 | 106 | 110 | 105 | 106 | 101 | 92.5
